Measurements taken from article PMC7763155, “Design and Characterisation of Inhibitory Peptides against Bleg1_2478, an Evolutionary Divergent B3 Metallo-β-lactamase” (Molecules, 2020).
Read-outs that look alike come from different tables or passages of the source. No end group written: not given here.

Experiments:
MBLs = settings: in words; ref [20]; cited from earlier work
Description: (§1) AMR among bacteria can be acquired through various means, i.e., through: (1) hydrolysis or inactivation of antibiotics by synthesizing enzymes; (2) redox process by exploiting the oxidation or reduction of the antibiotics; (3) modification of antibiotics by chemical substitution; (4) modification of the inhibition binding site in the target; (5) mutations on genes that encode the target or efflux pump that affect antibiotics uptake; (6) horizontal gene transfer where resistant genes are transferred from one pathogen to another via transduction, conjugation or ...

Class A SBLs = settings: in words; ref [17],[18],[19]; cited from earlier work
Description: as §1

Bleg1_2478 [1] = molecular target: T1, Bleg1_2478 (Shouchella lehensis (Bacillus lehensis), UniProt A0A060M4R1); assay: Inhibitory assay of designed peptides against Bleg1_2478 (ampicillin hydrolysis); format: biochemical, Bacillus lehensis G1; settings: pH 7.0, 30 °C, triplicates
Experimental: The ability of the peptides in inhibiting Bleg1_2478 was investigated via inhibitory assay. Firstly, enzymatic assay of purified Bleg1_2478 recombinant protein using ampicillin as the substrate was performed, serving as the positive control. The assay was carried out based on the method by. All assays were performed at 30 °C in total assay volume of 3 mL containing 20 mM sodium phosphate (Na2HPO4-NaH2PO4) (pH 7.0), 20 µg/mL BSA, 100 µM ZnSO4, 10 µM Bleg1_2478 and 100 µM ampicillin. The reaction was monitored by recording the absorbance at 235 nm every 1 min for a total duration of 6 min using a 50 Bio UV Visible Spectrophotometry. […] All assays were done in triplicates.

Bleg1_2478 [2] = molecular target: T1, Bleg1_2478; assay: Isothermal titration calorimetry (ITC) with Bleg1_2478; format: binding, Bacillus lehensis G1
Experimental: ITC measurement was performed at 30 °C with nanoisothermal titration calorimetry, TA Instrument, USA at Malaysian Genome Institute. The peptides were dissolved in 20 mM sodium phosphate buffer (Na2HPO4-NaH2PO4) (pH 7.0). Bleg1_2478 protein sample, the selected peptide inhibitors and 20 mM sodium phosphate buffer (Na2HPO4-NaH2PO4) (pH 7.0) were firstly degassed by using Themovac Unit. The experiment was carried out at 30 °C with stirring speed of 300 rpm. The calorimetry data were subsequently analysed using NanoAnalyze Software v3.8.0. (New Castle, DE, USA)

Bleg1_2478 [3] = molecular target: T1, Bleg1_2478; settings: in words; ref [22]; cited from earlier work
Description: Biochemical characterization of purified recombinant Bleg1_2478 further confirmed that it was indeed capable of degrading β-lactam antibiotics, with ampicillin ...

[4] = molecular target: Bleg1_2478 recombinant protein (Bacillus lehensis G1); assay: ITC; nano isothermal titration calorimetry (TA Instruments), 30 °C, 20 mM sodium phosphate buffer pH 7.0, stirring 300 rpm; which partner was in the cell and the concentrations are not stated
[5] = molecular target: Bleg1_2478 recombinant protein (Bacillus lehensis G1)
[6] = molecular target: Bleg1_2478 recombinant protein (Bacillus lehensis G1); remark: listed apart in the source
[7] = 10 µM peptide, 10 µM enzyme, 100 µM ampicillin
[8] = ITC, 30 °C, 20 mM sodium phosphate pH 7.0, 300 rpm, read-out: Dissociation constant, Kd

## CC1(C)[C@H](C(=O)O)N2C(=O)C[C@H]2S1(=O)=O [sulbactam]
MBLs
  Effectiveness against MBLs: not
Class A SBLs
  Effectiveness against Class A SBLs: effective

## O=C(O)[C@H]1/C(=C/CO)O[C@@H]2CC(=O)N21 [clavulanate]
MBLs
  Effectiveness against MBLs: not
Class A SBLs
  Effectiveness against Class A SBLs: effective

## RSWPWH [RSWPWH]
Bleg1_2478 [1]; 0.75 µM peptide
  Inhibition of Bleg1_2478: 12%
Bleg1_2478 [1]; [7]
  Inhibition of Bleg1_2478: 92%
Bleg1_2478 [2]; [8]
  Kd: 497 nM
Bleg1_2478 [2]; ITC, compared to ampicillin
  Fold increase in binding strength (Kd): 34 fold

## CC1(C)S[C@@H]2[C@H](NC(=O)[C@H](N)c3ccccc3)C(=O)N2[C@H]1C(=O)O [Ampicillin, ampicillin, reference compound]
Bleg1_2478 [3]
  Substrate preference: preferred substrate
Bleg1_2478 [2]
  Kd: 1470 nM
Bleg1_2478 [2]; ITC, 30 °C, 20 mM sodium phosphate pH 7.0
  Entropy, ΔS: −248.00 J/mol·K
Bleg1_2478 [2]; ITC, 30 °C, 20 mM sodium phosphate pH 7.0, 300 rpm
  Association constant, Ka: 680000 M⁻¹
Bleg1_2478 [2]; ITC, in words
  Number of binding sites from stoichiometry: one binding site

## C[C@]1(Cn2ccnn2)[C@H](C(=O)O)N2C(=O)C[C@H]2S1(=O)=O [tazobactam]
MBLs
  Effectiveness against MBLs: not
Class A SBLs
  Effectiveness against Class A SBLs: effective

## SSWWDR [SSWWDR]
Bleg1_2478 [1]; 0.25 µM peptide
  Inhibition of Bleg1_2478: 4%
Bleg1_2478 [1]; 0.50 µM peptide
  Inhibition of Bleg1_2478: 48%
Bleg1_2478 [1]; 0.75 µM peptide
  Inhibition of Bleg1_2478: 64%
Bleg1_2478 [1]; [7]
  Inhibition of Bleg1_2478: 88%
Bleg1_2478 [1]; 20 µM peptide, 10 µM enzyme, 100 µM ampicillin
  Inhibition of Bleg1_2478: 96%
Bleg1_2478 [2]; [8]
  Kd: 992 nM
Bleg1_2478 [2]; ITC, compared to ampicillin
  Fold increase in binding affinity (Ka): 1.5 fold
  Fold increase in binding strength (Kd): 68 fold

## RSWPWH [RSWPWH inhibitory peptide]
[4]
  Ka: 2.01e+06 M⁻¹
  Kd: 497 nM
  stoichiometry N: 0.941
[5]
  percent inhibition of Bleg1 2478 activity on ampicillin at 0.75 to 20 µM peptide (12% at 0.75 µM, 54% at 0.90 µM, 68% at 1 µM, 92% at 10 µM, the same at 20 µM): 92%
[6]
  IC50 of inhibition of Bleg1 2478 enzymatic activity (hydrolysis of 100 µM ampicillin by 10 µM Bleg1 2478, absorbance at 235 nm, 30 °C, pH 7.0): 0.9 µM

## SSWWDR [SSWWDR inhibitory peptide]
[4]
  Ka: 1.01e+06 M⁻¹
  Kd: 992 nM
  stoichiometry N: 0.722
[5]
  percent inhibition of Bleg1 2478 activity on ampicillin at 0.25 to 20 µM peptide (4% at 0.25 µM, 48% at 0.50 µM, 64% at 0.75 µM, 76% at 1 µM, 88% at 10 µM, 96% at 20 µM): 96%
[6]
  IC50 of inhibition of Bleg1 2478 enzymatic activity (hydrolysis of 100 µM ampicillin by 10 µM Bleg1 2478, absorbance at 235 nm, 30 °C, pH 7.0): 0.5 µM
